Measurements: patent US20230148599A1, “FUNGICIDAL MIXTURES CONTAINING PYRAZOLE DERIVATIVES” (FMC Corporation, priority 2020, published 2023)

Assays:
Format in all cases: in vivo
Settings in all cases: 50 ppm, 100 = 100% disease control, 0 = no control
Septoria tritici = assay: Test A: wheat leaf blotch, preventive spray on wheat seedlings
Outline: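 Wheat seedlings sprayed to run-off with compound suspended in acetone/water with 250 ppm PEG400 surfactant, inoculated next day with Septoria tritici spores. Held 48 h saturated at 24 °C, then 17 days at 20 °C; disease rated 0–100% control relative to controls.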

[1] = system: Puccinia recondita f. sp. tritici; assay: Test B: wheat leaf rust, preventive spray on wheat seedlings
Outline: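 Wheat seedlings were sprayed to run-off with compound suspended at ppm concentrations in acetone/water containing 250 ppm PEG400. The next day they were inoculated with Puccinia recondita f. sp. tritici spores, held saturated at 20 °C for 24 h, then kept 7 days at 20 °C. Disease control was rated 0–100% relative to untreated controls.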

[2] = system: Blumeria graminis f. sp. tritici; assay: Test C: wheat powdery mildew, preventive spray on wheat seedlings
Outline: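 Seedlings were sprayed to run-off with compound suspended (ppm) in 50/50 acetone–water containing 250 ppm PEG400, then spore-dust inoculated the following day. After 8 days at 20° C, disease control was rated visually from 0 to 100 against controls.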

Phakopsora pachyrhizi = assay: Test D: Asian soybean rust, preventive spray on soybean seedlings
Outline: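 Compounds in acetone/water (50/50) with 250 ppm PEG400, dosed in ppm, sprayed to run-off on soybean seedlings; inoculated with P. pachyrhizi spores next day. Held 24 h at 22 °C in saturated air, then 8 days at 22 °C; visual rating of disease control, 0–100, relative to untreated controls.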

Botrytis cinerea = assay: Test E: tomato Botrytis, preventive spray on tomato seedlings
Outline: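 Compound suspended in 50/50 acetone/water with 250 ppm PEG400 surfactant and sprayed to run-off on tomato seedlings; Botrytis cinerea spores applied the next day. Incubation 48 h at 20° C in saturated atmosphere, then 3 days at 24° C. Visual rating 0–100% disease control relative to controls.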

Alternaria solani = assay: Test F: tomato early blight, preventive spray on tomato seedlings
Outline: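 Tomato seedlings were sprayed to run-off with compound suspended in acetone/water (50/50) with 250 ppm PEG400 and inoculated with Alternaria solani spores the next day. Plants were held 48 h at 27 °C in saturated humidity, then 3 days at 20 °C. Disease control was rated visually from 0 to 100 against untreated controls.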

Structure (SMILES) | Test A disease control rating (Septoria tritici) | Test B disease control rating [1] | Test C disease control rating [2] | Test D disease control rating (Phakopsora pachyrhizi) | Test E disease control rating (Botrytis cinerea) | Test F disease control rating (Alternaria solani)
Cc1nn(C)c(Nc2c(F)cc(F)cc2[N+](=O)[O-])c1-c1ccc(C#N)cc1Cl [compound 120] | 100% | 100% | 89% | 44% | 100% | 99%
Cn1nc(C#N)c(-c2ccc(F)cc2Cl)c1Nc1c(F)cccc1[N+](=O)[O-] [compound 122] | 100% | 100% | 94% | 0% | 100% | 99%
Cc1nn(C)c(Nc2c(Cl)cccc2[N+](=O)[O-])c1-c1ccc(C#N)cc1Cl [compound 123] | 100% | 97% | 81% | 0% | 100% | 66%
COc1ccc(Nc2c(-c3ccc(C#N)cc3Cl)c(C)nn2C)c([N+](=O)[O-])c1 [compound 124] | 100% | 100% | 99% | 25% | 100% | 99%
Cc1nn(C)c(Nc2c(Br)cccc2[N+](=O)[O-])c1-c1ccc(C#N)cc1Cl [compound 125] | 100% | 96% | 0% | 0% | 99% | 9%
Cc1nn(C)c(Nc2ccccc2[N+](=O)[O-])c1-c1ccc(F)cc1Cl [compound 126] | 98% | 85% | 96% | 0% | 100% | 68%
CCc1nn(C)c(Nc2c(Cl)cc(Br)cc2[N+](=O)[O-])c1-c1ccc(F)cc1Cl [compound 128] | 100% | 98% | 96% | 31% | 99% | 33%
Cc1nn(C)c(Nc2cc(Cl)ccc2[N+](=O)[O-])c1-c1ccc(F)cc1Cl [compound 130] | 85% | 86% | 20% | 0% | 85% | 0%
Cc1nn(C)c(Nc2c(F)cc(Cl)cc2[N+](=O)[O-])c1-c1ccc(F)cc1Br [compound 131] | 100% | 100% | 99% | 80% | 99% | 100%
Cc1nn(C)c(Nc2c(F)cc(Br)cc2[N+](=O)[O-])c1-c1ccc(Cl)cc1Cl [compound 132] | 100% | 98% | 47% | 0% | 99% | 96%
Cc1nn(C)c(Nc2c(Cl)cccc2[N+](=O)[O-])c1-c1ccc(Cl)cc1Cl [compound 133] | 100% | 86% | 0% | 0% | 97% | 0%
Cc1nn(C)c(Nc2ccccc2[N+](=O)[O-])c1-c1ccc(C#N)cc1F [compound 134] | 100% | 23% | 71% | 0% | 70% | 0%
